The test system of this test is P388 leukemia ip, CD2F1 mice, survival T/C. Description: NCI In Vivo Anticancer Drug Screen. Data for tumor model P388 Leukemia (intraperitoneal) in CD2F1 (CDF1) mice. Particulars: endpoint: median survival time, higher = longer survival. Put shortly:
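Mice carrying the transplanted tumor received test compound or vehicle. Survival was recorded in each group, and the value is the treated-group measurement divided by that of the vehicle-treated control group.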

Where [1] appears, read: dose: 60.0 mg/kg/injection, schedule: Q01DX005 (ip), vehicle: Klucel (hydroxypropylcellulose) (HPC).
Setting [2] is: dose: 120.0 mg/kg/injection, schedule: Q01DX005 (ip), vehicle: Klucel (hydroxypropylcellulose) (HPC).
The mark [3] stands for this setting: dose: 240.0 mg/kg/injection, schedule: Q01DX005 (ip), vehicle: Klucel (hydroxypropylcellulose) (HPC).

Values joined by “and” are separate entries in the source; they are usually repeats but may differ in a detail not shown here. Equal entries are not always repeated. Toxic doses and inconclusive results are not listed.

With `CCOC(=O)c1c(C)cc2c(CO)n[nH]c(=O)c2c1C`, the T/C was 102 % of control (dose: 50.0 mg/kg/injection, schedule: Q01DX009 (ip), vehicle: saline with Tween-80); 100 % of control (dose: 100.0 mg/kg/injection, schedule: Q01DX009 (ip), vehicle: saline with Tween-80); 99 % of control (dose: 200.0 mg/kg/injection, schedule: Q01DX009 (ip), vehicle: saline with Tween-80).
`CCCCCCCCCCCCOc1ccccc1C(=O)O`: the T/C reads like this: (dose: 6.25 mg/kg/injection, schedule: Q04DX003 (ip), vehicle: saline sonified) 100 % of control; (dose: 12.5 mg/kg/injection, schedule: Q04DX003 (ip), vehicle: saline sonified) 100 % of control; (dose: 25.0 mg/kg/injection, schedule: Q04DX003 (ip), vehicle: saline sonified) 100 % of control.
`CSC(=S)N/N=C\c1c(CO)cnc(C)c1O`: the T/C is, setting by setting: (dose: 100.0 mg/kg/injection, schedule: Q04DX002 (ip), vehicle: saline with Tween-80) 116 % of control; (dose: 400.0 mg/kg/injection, schedule: Q04DX002 (ip), vehicle: saline with Tween-80) 113 % of control.
As to `CC[n+]1ccc2c(C)c3[nH]c4ccc(O)cc4c3c(C)c2c1`, the T/C (dose: 1.56 mg/kg/injection, schedule: Q04DX003 (ip), vehicle: saline) is 165 % of control; the T/C (dose: 3.12 mg/kg/injection, schedule: Q04DX003 (ip), vehicle: saline) is 192 % of control; the T/C (dose: 6.25 mg/kg/injection, schedule: Q04DX003 (ip), vehicle: saline) was 171 % of control and 223 % of control; the T/C (dose: 12.5 mg/kg/injection, schedule: Q04DX003 (ip), vehicle: saline) is 103 % of control and 90 % of control; the T/C (dose: 25.0 mg/kg/injection, schedule: Q04DX003 (ip), vehicle: saline) was 90 % of control; the T/C (dose: 50.0 mg/kg/injection, schedule: Q04DX003 (ip), vehicle: saline) is 90 % of control.
As to `O=[N+]([O-])c1ncccc1NCCN1CCCC1`, the T/C by setting is: (dose: 12.5 mg/kg/injection, schedule: Q01DX009 (ip), vehicle: saline) 104 % of control; (dose: 25.0 mg/kg/injection, schedule: Q01DX009 (ip), vehicle: saline) 100 % of control; (dose: 50.0 mg/kg/injection, schedule: Q01DX009 (ip), vehicle: saline) 106 % of control and 108 % of control.
For the molecule `CC[N+](C)(CC)CCOc1ccc(OCC[N+](C)(CC)CC)c2c1C(=O)c1ccccc1C2=O`, the T/C is 98 % of control (dose: 0.78 mg/kg/injection, schedule: Q01DX005 (ip), vehicle: saline); 109 % of control (dose: 1.56 mg/kg/injection, schedule: Q01DX005 (ip), vehicle: saline); 100 % of control (dose: 3.12 mg/kg/injection, schedule: Q01DX005 (ip), vehicle: saline).
As to `COc1cccc2c1C(=O)c1c(O)c3c(c(O)c1C2=O)CC(O)(/C(C)=N/NC(=O)CC(=O)N/N=C(\C)C1(O)Cc2c(O)c4c(c(O)c2C(OC2CC(N)C(O)C(C)O2)C1)C(=O)c1c(OC)cccc1C4=O)CC3OC1CC(N)C(O)C(C)O1` (stereo not drawn), the T/C by setting is: (dose: 3.13 mg/kg/injection, schedule: Q01DX009 (ip), vehicle: water) 153 % of control; (dose: 3.13 mg/kg/injection, schedule: Q04DX003 (ip), vehicle: water) 101 % of control; (dose: 6.25 mg/kg/injection, schedule: Q01DX009 (ip), vehicle: water) 169 % of control; (dose: 6.25 mg/kg/injection, schedule: Q04DX003 (ip), vehicle: water) 110 % of control; (dose: 12.5 mg/kg/injection, schedule: Q04DX003 (ip), vehicle: water) 112 % of control.
For the molecule `O=C(O)/C=C(/CC(=O)O)c1ccc(O)cc1`, the T/C is, setting by setting: under setting [1], 97 % of control; under setting [2], 102 % of control; under setting [3], 100 % of control.
`NC(=S)N=Nc1c(O)n(C2OC(CO)C(O)C(O)C2O)c2ccccc12` (stereo not drawn): the T/C runs as follows: (dose: 32.0 mg/kg/injection, schedule: Q01DX002 (ip), vehicle: saline with Tween-80) 109 % of control and 112 % of control; (dose: 64.0 mg/kg/injection, schedule: Q01DX002 (ip), vehicle: saline with Tween-80) 114 % of control and 116 % of control; (dose: 128.0 mg/kg/injection, schedule: Q01DX002 (ip), vehicle: saline with Tween-80) 98 % of control and 90 % of control.
With `O=C1CCCc2c1cc(C1CCCC1)c1ccccc21`, the T/C runs as follows: under setting [1], 104 % of control; under setting [2], 94 % of control; under setting [3], 101 % of control.
Regarding `NNc1nc(N2CCCCC2)ns1`, the T/C was 98 % of control (dose: 2.5 mg/kg/injection, schedule: Q01DX009 (ip), vehicle: saline with Tween-80); 110 % of control (dose: 5.0 mg/kg/injection, schedule: Q01DX009 (ip), vehicle: saline with Tween-80); 120 % of control (dose: 10.0 mg/kg/injection, schedule: Q01DX009 (ip), vehicle: saline with Tween-80).
Take `Fc1cccc(Cl)c1C(Nc1nc2ccccc2s1)Nc1nc2ccccc2s1`: the T/C is 98 % of control under setting [1], 101 % of control under setting [2] and 95 % of control under setting [3].
With `CN=C(N)c1ccc(N=C(N)c2ccc(C(N)=Nc3ccc(C(N)=NC)cc3)cc2)cc1`, the T/C is 100 % of control (dose: 1.3 mg/kg/injection, schedule: Q01DX005 (iv), vehicle: saline); 100 % of control (dose: 5.0 mg/kg/injection, schedule: Q04DX003 (ip), vehicle: saline); 92 % of control (dose: 6.48 mg/kg/injection, schedule: Q04DX002 (ip), vehicle: saline); 100 % of control (dose: 10.0 mg/kg/injection, schedule: Q04DX003 (ip), vehicle: saline); 120 % of control (dose: 10.8 mg/kg/injection, schedule: Q01DX005 (ip), vehicle: water); 172 % of control (dose: 20.0 mg/kg/injection, schedule: Q01DX009 (ip), vehicle: saline). The T/C (dose: 30.0 mg/kg/injection, schedule: Q01DX005 (ip), vehicle: saline) is 163 % of control.
As to `C=C1C(=O)C23C(OC(=O)CCCCCCCCCCCCCCC)C1CCC2C12COC3(O)C(O)C1C(C)(C)CCC2O` (stereo not drawn), the T/C was 101 % of control (dose: 3.75 mg/kg/injection, schedule: Q01DX009 (ip), vehicle: saline with Tween-80); 104 % of control (dose: 7.5 mg/kg/injection, schedule: Q01DX009 (ip), vehicle: saline with Tween-80); 103 % of control (dose: 15.0 mg/kg/injection, schedule: Q01DX009 (ip), vehicle: saline with Tween-80); 99 % of control (dose: 30.0 mg/kg/injection, schedule: Q01DX009 (ip), vehicle: saline with Tween-80).
With `O=C(OCC1OC(n2ccc(=S)[nH]c2=O)C(OC(=O)c2ccccc2)C1OC(=O)c1ccccc1)c1ccccc1` (stereo not drawn), the T/C is, setting by setting: (dose: 12.5 mg/kg/injection, schedule: Q01DX005 (ip), vehicle: saline with Tween-80) 102 % of control; (dose: 25.0 mg/kg/injection, schedule: Q01DX005 (ip), vehicle: saline with Tween-80) 91 % of control; (dose: 50.0 mg/kg/injection, schedule: Q01DX005 (ip), vehicle: saline with Tween-80) 91 % of control and 95 % of control; (dose: 200.0 mg/kg/injection, schedule: Q01DX005 (ip), vehicle: saline with Tween-80) 87 % of control.
Consider `COC(=O)c1ccccc1NC(CCN1CCN(CCC(=NC(C)(C)C)Nc2ccccc2C(=O)OC)CC1)=NC(C)(C)C`, for which the T/C reads like this: (dose: 50.0 mg/kg/injection, schedule: Q01DX009 (ip), vehicle: Klucel (hydroxypropylcellulose) (HPC)) 93 % of control; (dose: 100.0 mg/kg/injection, schedule: Q01DX009 (ip), vehicle: Klucel (hydroxypropylcellulose) (HPC)) 96 % of control; (dose: 200.0 mg/kg/injection, schedule: Q01DX009 (ip), vehicle: Klucel (hydroxypropylcellulose) (HPC)) 92 % of control.
With `COCN1C(=O)N2C(c3ccccc3)(c3ccccc3)C(C(=O)OC)=C(C(=O)OC)P12(c1ccccc1)c1ccccc1`, the T/C is 107 % of control (dose: 15.0 mg/kg/injection, schedule: Q01DX005 (ip), vehicle: Klucel (hydroxypropylcellulose) (HPC)); 99 % of control (dose: 30.0 mg/kg/injection, schedule: Q01DX005 (ip), vehicle: Klucel (hydroxypropylcellulose) (HPC)); 91 % of control and 97 % of control under setting [1]; 87 % of control under setting [3].
Turning to `CC(O)C1CCCCN1` (stereo not drawn), the T/C is, setting by setting: (dose: 50.0 mg/kg/injection, schedule: Q01DX005 (ip), vehicle: saline) 101 % of control; (dose: 100.0 mg/kg/injection, schedule: Q01DX005 (ip), vehicle: saline) 101 % of control; (dose: 200.0 mg/kg/injection, schedule: Q01DX005 (ip), vehicle: saline) 108 % of control.
Regarding `CC(=O)C1=C(O)/C(=C\SCc2ccccc2)NC1=O`, the T/C by setting is: (dose: 8.75 mg/kg/injection, schedule: Q01DX005 (ip), vehicle: Klucel (hydroxypropylcellulose) (HPC)) 105 % of control; (dose: 17.5 mg/kg/injection, schedule: Q01DX005 (ip), vehicle: Klucel (hydroxypropylcellulose) (HPC)) 104 % of control; (dose: 35.0 mg/kg/injection, schedule: Q01DX005 (ip), vehicle: Klucel (hydroxypropylcellulose) (HPC)) 101 % of control.

These data come from PubChem BioAssay AID330 (DTP/NCI, 2004).
